Assay results: article PMC3566115, “Interaction Domain of Glycoproteins gB and gH of Marek's Disease Virus and Identification of an Antiviral Peptide with Dual Functions” (PLoS ONE, 2013)
Where “and” joins values, the source holds several entries; their conditions need not be identical. Equal entries are not always repeated. Entries after “also recorded” stand apart in the source; their conditions may differ. Where two headings read alike, the source gives them in different places. Where no end group is shown, it is not given here.

Key:
[1] = system: MDV strain RB1B; conditions: cited from earlier work; for IC50: MDV plaque formation, previous study, read-out: 50% inhibitory concentration (IC50), plaque formation
Description: Our previous study reported that both glycoproteins gB and gH of the herpesvirus Marek's disease virus (MDV) contain eleven potential heptad repeat domains. […] HR1 and HR2 can form of a six-helix bundle structure, which is known as the virus fusion central core and is believed to bring the viral and cellular membranes closer together. […] This observation is in contrast with our results with MDV and other herpesviruses, [29], [33], in which three N-terminal HRs show ...

[2] = individual peptides; previous study; cited from earlier work
Description: In addition, the gBH1 peptide forms a homotrimeric structure with a molecular weight of 10.7 kDa. gHH3 adopts a monomer formation with a molecular weight of 3.8 kDa, and gHH1 forms a homotetramer with a molecular weight of approximately 12.1 kDa. Gel filtration was used to confirm the interactions between peptides. […] As show ...

[3] = system: MDV strain RB1B; assay type: cell-based, Marek's disease virus; conditions: for IC50: plaque formation, CEF cells, co-treatment: 100 pfu MDV incubated with peptide 2 hrs at 37°C, then 5 days in DMEM 2% FBS, triplicate, means ± SD, read-out: antiviral activity IC50; for virucidal activity (in words): virus pre-treatment: virus incubated with peptide at 25 μM for 1 hr at 37°C, then titrated on cell monolayers
Protocol: Primary chicken embryo fibroblasts (CEFs) were cultured as previously described. CEF-associated MDV strain RB1B,which was obtained from the Shandong Agriculture University and passaged multiple times in primary CEFs was incubated for 2 hrs at 37°C. Following incubation, the virus inoculum on the cells was replaced with DMEM supplemented with 2% FBS, and the cultures were incubated for another 5 days longer Consistent and uniform plaques were observed and counted using an Olympus microscope, and images were captured using DP Controller. CEF-associated MDV from the same passage at 2×10^4 plaque forming units (pfu) was used in both infectivity assays in this study.
All peptides were dissolved in DMEM without FBS and used at a range of concentrations. For the antiviral activities of peptides in the co-treatment assay, 100 pfu of MDV was incubated with the peptide at different concentrations for 2 hrs at 37°C. Following incubation, the virus-peptide mixtures on the cells were replaced with DMEM supplemented with 2% FBS, and the cultures were incubated for 5 days. At the end of this period, 50% inhibitory concentrations (IC50) values were calculated. […] For all treatments, unpenetrated virus was inactivated in a low pH buffer after the 45 min incubation with cells at 37°C. The monolayers were incubated for 5 days at 37°C in DMEM supplemented with 2% FBS. The ratio of plaque counts to the no peptide sample control is reported as the percentage of plaque formation (by arithmetic conversion of the mean percent plaque formation). The results are expressed as the average of triplicates ± the standard deviation, and all experiments were performed in parallel with each peptide and a non-specific peptide (i.e., scramble).

[4] = target: gH-derived HR3 peptide (gHH3) (Marek's disease virus strain RB1B)
[5] = target: gH-derived HR3 peptide (gHH3) (Marek's disease virus strain RB1B); assay: SEC
[6] = target: gH-derived HR3 peptide (gHH3) (Marek's disease virus strain RB1B); assay: SEC; remark: listed apart in the source
[7] = target: gB-derived HR1 peptide (gBH1) (Marek's disease virus strain RB1B); assay: SEC
Chain of gB-derived HR1 peptide (gBH1) (Marek's disease virus strain RB1B) (P18538 340-367 limits assumed): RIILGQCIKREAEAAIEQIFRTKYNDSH

## CC[C@H](C)[C@H](NC(=O)[C@H](C)NC(=O)[C@H](C)NC(=O)[C@H](CCC(=O)O)NC(=O)[C@H](C)NC(=O)[C@H](CCC(=O)O)NC(=O)[C@H](CCCNC(=N)N)NC(=O)[C@H](CCCCN)NC(=O)[C@@H](NC(=O)[C@H](CS)NC(=O)[C@H](CCC(N)=O)NC(=O)CNC(=O)[C@H](CC(C)C)NC(=O)[C@@H](NC(=O)[C@@H](NC(=O)[C@@H](N)CCCNC(=N)N)[C@@H](C)CC)[C@@H](C)CC)[C@@H](C)CC)C(=O)N[C@@H](CCC(=O)O)C(=O)N[C@@H](CCC(N)=O)C(=O)N[C@H](C(=O)N[C@@H](Cc1ccccc1)C(=O)N[C@@H](CCCNC(=N)N)C(=O)N[C@H](C(=O)N[C@@H](CCCCN)C(=O)N[C@@H](Cc1ccc(O)cc1)C(=O)N[C@@H](CC(N)=O)C(=O)N[C@@H](CC(=O)O)C(=O)N[C@@H](CO)C(=O)N[C@@H](Cc1c[nH]cn1)C(=O)O)[C@@H](C)O)[C@@H](C)CC [gBH1]
[1]
  IC50: < 12 µM
[2]
  Molecular mass of individual peptide in solution by gel filtration: 10.7 kDa
  Molecular state of individual peptide: homotrimeric; also recorded: Trimer

## EERKKLGEEIKKEAEEAKKQIEETKKNDEE [gHB1-EK]
[3]
  IC50: 8.7 ± 1.29 µM

## HMNASDMEIKSYINMIESVEESSNYDF [gHH1]
[3]
  IC50: 4.1 ± 0.26 µM
  virucidal activity (in words): no or low virucidal activity
[1]
  IC50: < 12 µM
[1]; virus co-treatment (co) and post-treatment (post)
  blocking of viral infection in co-treatment and post-treatment assays (in words): blocked viral infection
[2]
  Molecular mass of individual peptide in solution by gel filtration: approximately 12.1 kDa and 12.1 kDa
  Molecular state of individual peptide: homotetramer; also recorded: Tetramer

## KKNEEIIKKLEEKTKKNEEKNKKSEEILKKLEELRKK [gHH3-EK]
[3]
  IC50: 6.3 ± 1.16 µM

## NADIIKSLIRKTIINASKNTASLSILQHLYVLRS [gHH3]
[3]
  IC50: 12.2 ± 0.28 µM
  virucidal activity (in words): no or low virucidal activity
[1]
  IC50: < 12 µM
[2]
  Molecular mass of individual peptide in solution by gel filtration: 3.8 kDa
  Molecular state of individual peptide: Monomer

## gB-derived HR1 peptide (gBH1)
[4]
  antiviral activity IC50 (plaque formation, MDV on CEF cells) of the mixture of the three peptides gHH1+gHH3+gBH1, the same level as gHH1 alone: 4.7 µM
[5]
  stoichiometry N: 1
[6]
  stoichiometry N: 3

## gH-derived HR1 peptide (gHH1)
[7]
  stoichiometry N: 1
[5]
  stoichiometry N: 3
[6]
  stoichiometry N: 1
